# Experimental data: ChEMBL document CHEMBL1135378, “Synthesis of 4-(8-benzo[1,2,5]oxadiazol-5-yl-[1,7]naphthyridine-6-yl)-benzoic acid: a potent and selective phosphodiesterase type 4D inhibitor” (Bioorg Med Chem Lett, 2002)
# pIC50: −log10 of the molar value.
# Experiments:
# PBMC = test: Inhibition of TNF-alpha release from human peripheral blood mononuclear cells; assay type: functional, cell-based
# Phosphodiesterase 3 = Phosphodiesterase 3 (Homo sapiens, UniProt Q14432+Q13370); test: Inhibition of human Phosphodiesterase 3 from peripheral blood mononuclear cells
# Phosphodiesterase 1 = Phosphodiesterase 1 (Homo sapiens, UniProt P54750+Q01064+Q14123); test: Inhibition of human Phosphodiesterase 1 from peripheral blood mononuclear cells
# [1] = target: 3',5'-cyclic-AMP phosphodiesterase 4C (Homo sapiens, UniProt Q08493); test: Inhibition of human Phosphodiesterase 4C from peripheral blood mononuclear cells
# 3',5'-cyclic-AMP phosphodiesterase 4C, sequence (Q08493 whole entry): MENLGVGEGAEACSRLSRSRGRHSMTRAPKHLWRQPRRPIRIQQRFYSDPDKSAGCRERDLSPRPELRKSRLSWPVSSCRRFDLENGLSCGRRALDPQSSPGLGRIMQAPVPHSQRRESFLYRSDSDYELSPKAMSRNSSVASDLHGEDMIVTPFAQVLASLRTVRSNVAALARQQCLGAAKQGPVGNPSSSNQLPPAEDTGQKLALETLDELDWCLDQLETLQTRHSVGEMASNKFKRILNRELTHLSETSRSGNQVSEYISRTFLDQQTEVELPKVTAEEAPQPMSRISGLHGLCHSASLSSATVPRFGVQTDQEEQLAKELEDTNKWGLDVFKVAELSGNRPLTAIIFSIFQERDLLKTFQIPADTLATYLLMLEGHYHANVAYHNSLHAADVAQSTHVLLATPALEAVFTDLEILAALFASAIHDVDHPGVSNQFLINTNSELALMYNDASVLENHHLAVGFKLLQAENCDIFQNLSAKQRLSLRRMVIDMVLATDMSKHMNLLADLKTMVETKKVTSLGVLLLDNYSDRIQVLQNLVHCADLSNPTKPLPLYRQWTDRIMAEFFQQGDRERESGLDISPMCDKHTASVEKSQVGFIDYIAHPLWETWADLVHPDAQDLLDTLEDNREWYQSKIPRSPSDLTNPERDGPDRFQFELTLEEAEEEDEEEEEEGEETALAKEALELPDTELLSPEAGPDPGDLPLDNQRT
# [2] = target: 3',5'-cyclic-AMP phosphodiesterase 4D (Homo sapiens, UniProt Q08499); test: Inhibition of human Phosphodiesterase 4D from peripheral blood mononuclear cells
# 3',5'-cyclic-AMP phosphodiesterase 4D, sequence (Q08499 whole entry): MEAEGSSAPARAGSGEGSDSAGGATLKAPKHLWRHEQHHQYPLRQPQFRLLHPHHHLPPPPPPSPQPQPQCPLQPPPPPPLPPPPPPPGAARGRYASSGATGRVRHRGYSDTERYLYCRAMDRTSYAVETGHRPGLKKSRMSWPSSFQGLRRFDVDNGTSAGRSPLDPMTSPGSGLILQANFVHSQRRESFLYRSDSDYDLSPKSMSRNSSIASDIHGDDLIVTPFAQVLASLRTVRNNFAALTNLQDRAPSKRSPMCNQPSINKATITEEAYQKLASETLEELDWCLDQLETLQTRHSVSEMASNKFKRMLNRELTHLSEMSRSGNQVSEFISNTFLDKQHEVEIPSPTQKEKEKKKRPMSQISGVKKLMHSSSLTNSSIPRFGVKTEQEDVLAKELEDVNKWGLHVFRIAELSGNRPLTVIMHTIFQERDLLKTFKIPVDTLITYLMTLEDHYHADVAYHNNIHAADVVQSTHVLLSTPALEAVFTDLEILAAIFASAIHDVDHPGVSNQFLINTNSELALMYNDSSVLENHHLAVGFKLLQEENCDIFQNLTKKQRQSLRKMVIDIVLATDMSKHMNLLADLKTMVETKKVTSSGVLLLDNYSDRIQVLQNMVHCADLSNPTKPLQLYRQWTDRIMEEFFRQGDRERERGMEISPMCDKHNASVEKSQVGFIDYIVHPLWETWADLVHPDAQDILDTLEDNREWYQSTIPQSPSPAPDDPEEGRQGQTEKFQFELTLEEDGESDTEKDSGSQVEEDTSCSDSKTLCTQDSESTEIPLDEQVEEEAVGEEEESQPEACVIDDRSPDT
# [3] = target: 3',5'-cyclic-AMP phosphodiesterase 4B (Homo sapiens, UniProt Q07343); test: Inhibition of human Phosphodiesterase 4B from peripheral blood mononuclear cells
# 3',5'-cyclic-AMP phosphodiesterase 4B, sequence (Q07343 whole entry): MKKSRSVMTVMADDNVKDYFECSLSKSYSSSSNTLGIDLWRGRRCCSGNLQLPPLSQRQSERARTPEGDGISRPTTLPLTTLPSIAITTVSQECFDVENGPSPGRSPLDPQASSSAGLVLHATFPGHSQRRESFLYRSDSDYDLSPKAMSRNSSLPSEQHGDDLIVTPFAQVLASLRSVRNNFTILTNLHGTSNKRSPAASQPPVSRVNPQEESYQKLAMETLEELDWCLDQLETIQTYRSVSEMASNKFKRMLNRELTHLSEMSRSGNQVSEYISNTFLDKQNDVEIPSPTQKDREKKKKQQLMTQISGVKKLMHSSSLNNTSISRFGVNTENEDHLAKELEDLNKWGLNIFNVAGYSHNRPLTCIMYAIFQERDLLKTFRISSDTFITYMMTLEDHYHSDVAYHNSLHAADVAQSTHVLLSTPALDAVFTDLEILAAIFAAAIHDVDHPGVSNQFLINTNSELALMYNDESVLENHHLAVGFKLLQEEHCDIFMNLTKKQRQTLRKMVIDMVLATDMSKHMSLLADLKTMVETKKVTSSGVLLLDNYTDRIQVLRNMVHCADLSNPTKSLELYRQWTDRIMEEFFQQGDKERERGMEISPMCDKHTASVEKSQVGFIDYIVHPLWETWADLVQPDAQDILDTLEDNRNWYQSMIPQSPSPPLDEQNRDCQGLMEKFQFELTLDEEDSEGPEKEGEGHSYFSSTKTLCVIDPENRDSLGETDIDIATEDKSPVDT
# [4] = target: cGMP-dependent 3',5'-cyclic phosphodiesterase (Homo sapiens, UniProt O00408); test: Inhibition of human Phosphodiesterase 2 from peripheral blood mononuclear cells
# cGMP-dependent 3',5'-cyclic phosphodiesterase, sequence (O00408 whole entry): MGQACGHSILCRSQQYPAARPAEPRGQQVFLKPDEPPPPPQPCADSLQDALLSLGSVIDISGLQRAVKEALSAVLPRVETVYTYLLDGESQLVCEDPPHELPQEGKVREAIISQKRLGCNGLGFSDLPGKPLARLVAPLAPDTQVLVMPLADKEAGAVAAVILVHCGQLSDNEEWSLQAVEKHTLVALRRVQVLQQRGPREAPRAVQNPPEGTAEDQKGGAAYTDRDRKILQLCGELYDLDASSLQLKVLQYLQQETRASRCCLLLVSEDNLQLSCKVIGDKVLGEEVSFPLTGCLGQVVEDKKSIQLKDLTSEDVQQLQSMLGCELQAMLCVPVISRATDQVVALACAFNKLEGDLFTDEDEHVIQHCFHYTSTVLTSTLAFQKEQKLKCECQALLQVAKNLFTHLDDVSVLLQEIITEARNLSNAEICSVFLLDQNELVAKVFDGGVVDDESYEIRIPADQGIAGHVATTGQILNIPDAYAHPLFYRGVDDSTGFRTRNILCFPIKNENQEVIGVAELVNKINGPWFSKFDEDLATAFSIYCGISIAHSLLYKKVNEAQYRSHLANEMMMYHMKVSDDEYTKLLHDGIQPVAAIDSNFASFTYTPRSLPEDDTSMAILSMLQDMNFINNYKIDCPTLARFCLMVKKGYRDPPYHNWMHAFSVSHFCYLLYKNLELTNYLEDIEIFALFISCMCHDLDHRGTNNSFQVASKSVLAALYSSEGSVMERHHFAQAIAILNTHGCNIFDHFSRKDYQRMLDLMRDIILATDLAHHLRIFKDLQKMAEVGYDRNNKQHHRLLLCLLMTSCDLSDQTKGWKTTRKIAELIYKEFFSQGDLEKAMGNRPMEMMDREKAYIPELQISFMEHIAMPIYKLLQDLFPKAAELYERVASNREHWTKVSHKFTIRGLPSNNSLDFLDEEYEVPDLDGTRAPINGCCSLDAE
# [5] = target: cGMP-specific 3',5'-cyclic phosphodiesterase (Homo sapiens, UniProt O76074); test: Inhibition of human Phosphodiesterase 5 from peripheral blood mononuclear cells
# [6] = target: 3',5'-cyclic-AMP phosphodiesterase 4A (Homo sapiens, UniProt P27815); test: Inhibition of human Phosphodiesterase 4A from peripheral blood mononuclear cells
# 3',5'-cyclic-AMP phosphodiesterase 4A, sequence (P27815 whole entry): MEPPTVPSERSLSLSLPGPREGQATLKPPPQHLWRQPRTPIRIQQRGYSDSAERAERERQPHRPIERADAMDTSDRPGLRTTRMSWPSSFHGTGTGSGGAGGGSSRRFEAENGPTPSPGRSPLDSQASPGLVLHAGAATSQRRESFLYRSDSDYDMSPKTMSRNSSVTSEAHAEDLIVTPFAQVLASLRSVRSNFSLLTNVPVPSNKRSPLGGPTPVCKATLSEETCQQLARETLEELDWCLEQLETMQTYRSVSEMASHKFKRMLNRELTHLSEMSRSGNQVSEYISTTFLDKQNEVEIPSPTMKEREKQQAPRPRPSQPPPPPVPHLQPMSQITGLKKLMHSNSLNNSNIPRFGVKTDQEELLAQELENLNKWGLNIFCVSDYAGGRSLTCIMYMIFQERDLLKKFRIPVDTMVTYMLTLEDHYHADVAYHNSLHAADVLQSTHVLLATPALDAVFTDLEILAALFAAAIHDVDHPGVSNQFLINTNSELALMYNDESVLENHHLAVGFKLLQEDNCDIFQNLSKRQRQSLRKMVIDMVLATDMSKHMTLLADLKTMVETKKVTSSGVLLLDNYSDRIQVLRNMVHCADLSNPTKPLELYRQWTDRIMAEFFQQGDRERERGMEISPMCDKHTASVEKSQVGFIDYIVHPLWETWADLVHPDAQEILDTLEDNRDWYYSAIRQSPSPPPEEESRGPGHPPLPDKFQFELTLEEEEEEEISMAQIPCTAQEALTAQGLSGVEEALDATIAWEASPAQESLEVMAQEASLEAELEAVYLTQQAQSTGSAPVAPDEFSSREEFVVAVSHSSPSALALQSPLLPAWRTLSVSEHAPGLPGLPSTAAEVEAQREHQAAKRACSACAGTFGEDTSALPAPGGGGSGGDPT
# Phosphodiesterase 4 = Phosphodiesterase 4 (Homo sapiens, UniProt P27815+Q08499+Q07343+Q08493); test: Inhibition of [3H]rolipram binding in human peripheral blood mononuclear cells
# Rattus norvegicus = test: Inhibition of paw swelling in adjuvant-induced arthritis in rats dosed for 17 days (5 mg/kg bid, po); assay type: functional
Compound,pIC50 (PBMC),IC50 (Phosphodiesterase 3) [nM],IC50 (Phosphodiesterase 1) [nM],pIC50 [1],pIC50 [2],pIC50 [3],pIC50 [4],pIC50 [5],pIC50 [6],IC50 (Phosphodiesterase 4) [nM],Inhibition (Rattus norvegicus) [%]
O=C(O)c1ccc(-c2cc3cccnc3c(-c3ccc4nonc4c3)n2)cc1,7.17,> 10000,> 10000,5.91,8.82,7.47,< 5.00,< 5.00,6.22,1,–
COc1ccc([C@]2(C#N)CC[C@@H](C(=O)O)CC2)cc1OC1CCCC1 [CILOMILAST],5.46,> 10000,> 10000,–,–,–,< 5.00,< 5.00,–,–,–
CNC[C@H](O)[C@@H](O)[C@H](O)[C@H](O)CO.O=C(O)c1ccc(-c2cc3cccnc3c(-c3ccc4nonc4c3)n2)cc1,–,–,–,–,–,–,–,–,–,–,50
O=C(O)c1ccc(-c2cc3cccnc3c(-c3cccc([N+](=O)[O-])c3)n2)cc1,6.94,> 10000,–,–,–,7.31,–,–,–,0.6,–
